Experimental findings from US20240300934A1, “COMPOUNDS FOR MODULATING MYCOBACTERIUM TUBERCULOSIS RESPONSE” (priority 2021, published 2024) are described below.

Series [1] deals with rv2390c′::GFP reporter Mtb strain. It is filed as cell-based, Mycobacterium tuberculosis. The note with it: for rv2390c′::GFP Cl− response phenotype: compared to C6.
Series [2] concerns Mtb. The experiment in a line: Mtb growth assay in cholesterol media (OD600). It is filed as cell-based, Mycobacterium tuberculosis.
The test system of series [3] is Mtb in J774 cells. The series can be described thus: Mtb growth in J774 macrophage-like cells (mKO fluorescence). It is filed as cell-based, Mycobacterium tuberculosis. The note with it: for % Reduction of Intracellular Infection (J774.1 cells) at 10 μM cmpd: 10 μM compound; for Inhibition of Mtb growth in J774 cells phenotype: compared to C6. The procedure:
For the tertiary screen of selected hit compounds in J774 murine macrophage-like cells, 30,000 J774 cells/well were seeded in bar-coded 384-well black, clear bottom plates in a 30 μl volume in J774 infection media (DMEM+10% FBS+1 mM sodium pyruvate+2 mM L-glutamine) using a ThermoFisher Multidrop Combi reagent dispenser, one day prior to assay start. On the day of the assay, log-phase Mtb constitutively expressing mKO were pelleted and resuspended in 1 ml basal uptake buffer (0.5% bovine serum albumin+25 mM dextrose+0.5 mM MgCl2+1 mM CaCl2+0.1% gelatin in phosphate buffered saline (PBS), passed 6× though a tuberculin syringe with a 25 G×5/8″ needle, then resuspended in J774 infection media to a final OD600=0.2. 10 μl of this bacterial suspension was added to each well of the 384-well plates containing the J774 cells, followed by addition of 10 μl of the appropriate compounds (pre-aliquoted in v-bottom plates in a 1:1 mix of PBS:J774 infection media). Addition of Mtb and compounds were conducted using a Janus Ministation. For each test plate, two columns of controls (16 wells each) were included, with one column consisting of treatment with DMSO as a carrier control (negative control), and the other column consisting of treatment with 5 μM rifampicin (positive control). This tertiary assay was done as a dose-response assay in duplicate runs, with compounds tested beginning at a final concentration of 20 μM and two-fold dilutions down to 0.039 μM. Plates were kept in humidified ziplock bags in a 37° C., 5% CO2 incubator. 6 days post-infection, mKO fluorescence signal was read using a PerkinElmer EnVision multimode plate reader (bottom read filter, excitation 530/8 nm, Bodipy TMR D555 single mirror, emission 579/25 nm). mKO fluorescence in DMSO-treated control samples were defined as 100% growth, and fluorescence observed in treatment conditions calculated as a percentage from that set value.
For J774 infection in 96-well plates, 180,000 J774 cells were seeded per well in 180 μl of J774 infection media one day prior to infection. On the day of the assay, log-phase Mtb constitutively expressing mKO were pelleted and resuspended in 1 ml basal uptake buffer, passed 6× though a tuberculin syringe with a 25 G×5/8″ needle, then resuspended in J774 infection media to a final OD600=0.2. Media was removed from 96-well plate containing the J774 cells, with 140 μl of fresh J774 infection media added back to each well. 40 μl of the Mtb suspension at OD600=0.2 was added to each well, followed by addition of appropriate concentration of compound or DMSO in a 20 μl final volume in J774 infection media (compound final concentration 10 μM, rifampicin final concentration 5 μM, DMSO final concentration 0.1%/well). Bacterial mKO fluorescence was read immediately after infection using a Biotek Synergy Neo2 microplate reader (bottom read monochromator, excitation 543/10 nm, emission 565/10 nm), and again 6 days post-infection. Plates were kept in humidified ziplock bags in a 37° C., 5% CO2 incubator. mKO fluorescence in DMSO-treated control samples were defined as 100% growth, and fluorescence observed in treatment conditions calculated as a percentage from that set value.

A short description of series [4]: Kinetic aqueous solubility in pH 7.4 PBS. It is filed as physicochemical. To be noted: PBS, pH 7.4, aqueous buffer, kinetic from dmso stock; Table 2; read-out: Kinetic Aqueous Solubility S.
Protocol: (§1) Assays examining mouse and human liver microsomal stability, kinetic aqueous solubility, mouse and human plasma protein binding and stability, and human cytochrome P450 inhibition characteristics of the compounds were run by BioDuro, Incorporated, using standard protocols as previously described (Wang et al, 2020). hERG inhibition assays were also performed by BioDuro, Incorporated.
Series [5] in a line: Mouse liver microsomal stability. It counts as in vitro ADME. The note with it: mouse liver microsomes; read-out: MLM t1/2. (In general: Liver microsomes are a subcellular fraction often used to study metabolism.)
Protocol: as §1
The nature of series [6]: Mouse pharmacokinetics, single oral dose. The note with it: female, single 25 mg/kg po dose; for Kp at 5 h: CD-1, mouse, lung vs plasma, read-out: Mouse PK Clung/Cplasma at t = 5 h; for AUC(0-t): mouse, plasma, CD-1 mice, read-out: Mouse PK AUC0-5h. It is filed as in vivo, CD-1 mice. The procedure: Blood samples were collected in K2EDTA coated tubes pre-dose, 0.5, 1, 3 and 5 hrs post-dose, placed on ice, and centrifuged to recover plasma. The recovered plasma was kept at −80° C. as needed prior to analysis, which was performed as previously described (Wang et al, 2020). In brief, a Sciex Applied Biosystems Qtrap 4000 triple-quadrupole mass spectrometer coupled to an Agilent 1260 HPLC system was used for HPLC coupled to tandem mass spectrometry (LC-MS/MS) quantitative analysis of the samples, with chromatography attained using an Agilent Zorbax SB-C8 column (2.1×30 mm; particle size, 3.5 μm) and a reverse phase gradient elution. The aqueous mobile phase consisted of Milli-Q deionized water with 0.1% formic acid (A), while the organic mobile phase was 0.1% formic acid in acetonitrile (B). The gradient set-up was as follows: 5-90% B over 2 mins, 1 min at 90% B, then an immediate drop to 5% B and an additional 1 min at 5% B. Quantification of molecules was carried out via multiple-reaction monitoring of parent/daughter transitions in electrospray positive-ionization mode, and sample analyses accepted if quality control and standard samples had concentrations within 20% of the nominal concentration. Preparation of compounds for generation of standard curves and quality control spiking solutions were performed as previously described (Wang et al, 2020). Data were processed using Analyst software (Version 1.6.2; Applied Biosystems Sciex).

Values after ≈ are worked out from the molar mass of the structure shown. Marks after values point to notes of the source that are not given here.

Take `CCSc1ncc(CN2CCN(c3nc4ccccc4s3)CC2)cn1` [JSF-4298, 2-(4-((2-(ethylthio)pyrimidin-5-yl)methyl)piperazin-1-yl)benzo[d]thiazole]: the “rv2390c′::GFP reporter signal upon Mtb exposure to high [Cl−] (in words)” value in series [1] (10 μM, 250 mM NaCl) was “continuing to demonstrate the phenotypes seen with the parental C6 compound”. Further, the “rv2390c′::GFP Cl− response phenotype” value in series [1] is “Y”. In addition, the “Mtb growth in cholesterol media (in words)” value in series [2] (10 μM, OD600) was “continuing to demonstrate the phenotypes seen with the parental C6 compound”. For the same compound, the “Growth inhibition in cholesterol media phenotype” value in series [2] (compared to C6) is reported as “Y”. The “Mtb growth in J774 cells (in words)” value in series [3] (10 μM, 6 days post-infection) is recorded as “continuing to demonstrate the phenotypes seen with the parental C6 compound”.

A word on the kinetic solubility: it is the concentration staying in solution when a stock, usually in DMSO, is diluted into the medium. On to `CCSc1ncc(CN2CCN(c3nc4ccc(Cl)cc4o3)CC2)cn1` [JSF-4467, 6-chloro-2-(4-((2-(ethylthio)pyrimidin-5-yl)methyl)piperazin-1-yl)benzo[d]oxazole], for which the “rv2390c′::GFP Cl− response phenotype” value in series [1] is on record as “Y”. Also, the kinetic solubility in series [4] turned out to be 8.3 µM (≈ 3.24 µg/mL). Also, in series [3], the “% Reduction of Intracellular Infection (J774.1 cells) at 10 μM cmpd” value is 50.6 ± 2.0% and the “Inhibition of Mtb growth in J774 cells phenotype” value (shortened to “Inhibition of Mtb growth”) is “Y”. The half-life in series [5] was found to be 54.3 min. Moreover, in series [6], the Kp at 5 h came out at 0.36 and the AUC(0-t) worked out at 41700 ng·h/mL.

Consider `CCSc1ncc(CN2CCN(c3nc4cc(C)ccc4o3)CC2)cn1` [JSF-4471, 2-(4-((2-(ethylthio)pyrimidin-5-yl)methyl)piperazin-1-yl)-5-methylbenzo[d]oxazole], for which the “rv2390c′::GFP Cl− response phenotype” value in series [1] was “Y”. In series [3], the “Inhibition of Mtb growth” value is listed as “Y”.

On to `CCSc1ncc(CN2CCN(c3nc4cc(Cl)ccc4o3)CC2)cn1` [JSF-4477, 5-chloro-2-(4-((2-(ethylthio)pyrimidin-5-yl)methyl)piperazin-1-yl)benzo[d]oxazole], for which the “rv2390c′::GFP Cl− response phenotype” value in series [1] is on record as “Y”.

For the compound `CCSc1ncc(CN2CCN(c3nc4ccc(C(F)(F)F)cc4o3)CC2)cn1` [JSF-4507, 2-(4-((2-(ethylthio)pyrimidin-5-yl)methyl)piperazin-1-yl)-6-(trifluoromethyl)benzo[d]oxazole], the “rv2390c′::GFP Cl− response phenotype” value in series [1] was “Y”. The “Inhibition of Mtb growth” value in series [3] is reported as “Y”.

Turning to `CCSc1ncc(CN2CCN(c3nc4ccc(F)cc4o3)CC2)cn1` [JSF-4509, 2-(4-((2-(ethylthio)pyrimidin-5-yl)methyl)piperazin-1-yl)-6-fluorobenzo[d]oxazole], in series [1], the “rv2390c′::GFP Cl− response phenotype” value is recorded as “Y”.

As to `CCSc1ncc(CN2CCN(c3nc4cccc(F)c4o3)CC2)cn1` [JSF-4516, 2-(4-((2-(ethylthio)pyrimidin-5-yl)methyl)piperazin-1-yl)-7-fluorobenzo[d]oxazole], the “rv2390c′::GFP Cl− response phenotype” value in series [1] was “N”. For the same compound, in series [3], the “Inhibition of Mtb growth” value is on record as “Y”.

With `CCSc1ncc(CN2CCN(c3nc4cc(F)c(F)cc4o3)CC2)cn1` [JSF-4525, 2-(4-((2-(ethylthio)pyrimidin-5-yl)methyl)piperazin-1-yl)-5,6-difluorobenzo[d]oxazole], the “rv2390c′::GFP Cl− response phenotype” value in series [1] is listed as “Y”. The kinetic solubility in series [4] came out at 0.952 µM (≈ 0.373 µg/mL). In addition, in series [3], the “% Reduction of Intracellular Infection (J774.1 cells) at 10 μM cmpd” value is reported as 46.3 ± 2.9^b % and the “Inhibition of Mtb growth” value is reported as “Y”. For the same compound, the half-life in series [5] turned out to be 39.8 min. In series [6], the Kp at 5 h came to 0.33 and the AUC(0-t) turned out to be 29700 ng·h/mL.

With `CCSc1ncc(CN2CCN(c3nc4cc(OC)ccc4o3)CC2)cn1` [JSF-4528, 2-(4-((2-(ethylthio)pyrimidin-5-yl)methyl)piperazin-1-yl)-5-methoxybenzo[d]oxazole], the “rv2390c′::GFP Cl− response phenotype” value in series [1] is reported as “N”.

For `CCSc1ncc(CNCCNc2nc3ccccc3o2)cn1` [JSF-4547, N^1-(benzo[d]oxazol-2-yl)-N^2-((2-(ethylthio)pyrimidin-5-yl)methyl)ethane-1,2-diamine], the “rv2390c′::GFP Cl− response phenotype” value in series [1] is recorded as “N”. The “Inhibition of Mtb growth” value in series [3] is listed as “N”.

For the compound `CCSc1ncc(CN2CCN(c3nc4c(C)cccc4o3)CC2)cn1` [JSF-4551, 2-(4-((2-(ethylthio)pyrimidin-5-yl)methyl)piperazin-1-yl)-4-methylbenzo[d]oxazole], the “rv2390c′::GFP Cl− response phenotype” value in series [1] is “Y”. The “Inhibition of Mtb growth” value in series [3] is listed as “Y”.

As to `CCSc1ncc(CN2CCN(c3nc4cccc(C)c4o3)CC2)cn1` [JSF-4562, 2-(4-((2-(ethylthio)pyrimidin-5-yl)methyl)piperazin-1-yl)-7-methylbenzo[d]oxazole], the “rv2390c′::GFP Cl− response phenotype” value in series [1] is “Y”. Further, the “Inhibition of Mtb growth” value in series [3] was “Y”.

Turning to `CCSc1ncc(CN2CCN(c3nc4cccc(C(F)(F)F)c4o3)CC2)cn1` [JSF-4601, 2-(4-((2-(ethylthio)pyrimidin-5-yl)methyl)piperazin-1-yl)-7-(trifluoromethyl)benzo[d]oxazole], the “rv2390c′::GFP Cl− response phenotype” value in series [1] is recorded as “Y”.

In the case of `CCSc1ncc(CN2CCN(c3nc4c(F)cccc4o3)CC2)cn1` [JSF-4602, 2-(4-((2-(ethylthio)pyrimidin-5-yl)methyl)piperazin-1-yl)-4-fluorobenzo[d]oxazole], in series [1], the “rv2390c′::GFP Cl− response phenotype” value is reported as “Y”. The “Inhibition of Mtb growth” value in series [3] is given as “Y”.

Consider `CCSc1ncc(CN2CCN(c3nc4cccc(Cl)c4o3)CC2)cn1` [JSF-4603, 7-chloro-2-(4-((2-(ethylthio)pyrimidin-5-yl)methyl)piperazin-1-yl)benzo[d]oxazole], for which the “rv2390c′::GFP Cl− response phenotype” value in series [1] is listed as “Y”. For the same compound, the “Inhibition of Mtb growth” value in series [3] is on record as “Y”.

Turning to `CCSc1ncc(CN2CCN(c3nc4c(Cl)cccc4o3)CC2)cn1` [JSF-4604, 4-chloro-2-(4-((2-(ethylthio)pyrimidin-5-yl)methyl)piperazin-1-yl)benzo[d]oxazole], the “rv2390c′::GFP Cl− response phenotype” value in series [1] is “Y”. Also, the “Inhibition of Mtb growth” value in series [3] is reported as “Y”.

For `CCSc1ncc(C(=O)N2CCN(c3nc4ccccc4o3)CC2)cn1` [JSF-4683, (4-(benzo[d]oxazol-2-yl)piperazin-1-yl)(2-(ethylthio)pyrimidin-5-yl)methanone], the “rv2390c′::GFP Cl− response phenotype” value in series [1] is recorded as “N”.

`CSc1ncc(CN2CCN(c3nc4ccccc4o3)CC2)cn1` [JSF-4730, 2-(4-((2-(methylthio)pyrimidin-5-yl)methyl)piperazin-1-yl)benzo[d]oxazole]: the “rv2390c′::GFP Cl− response phenotype” value in series [1] was “Y”. Also, the “Inhibition of Mtb growth” value in series [3] is recorded as “Y”.

As for `CCSc1ncc(CN2CCN(c3ncco3)CC2)cn1` [JSF-4747, 2-(4-((2-(ethylthio)pyrimidin-5-yl)methyl)piperazin-1-yl)oxazole], the “rv2390c′::GFP Cl− response phenotype” value in series [1] was “Y”.
